Experimental data published in patent US9790169B2, “IDO inhibitors” (BRISTOL-MYERS SQUIBB COMPANY, priority 2015, dated 2017).

Target: human IDO1 (Homo sapiens, UniProt P14902)
Experiment: Assessment of human IDO-1 inhibitory activity in HEK cells (human IDO1/HEK293 cells, kynurenine read-out with Ehrlich reagent, absorbance 490 nm)
Format: cell-based
Parameters: expressed in transfected cells
Settings: HEK Human IDO-1 cellular assay
Method: Exemplary compounds were tested for inhibition of IDO activity.
Assessment of Human IDO-1 Inhibitory Activity in HEK Cells
HEK293 cells were transfected with a pCDNA-based mammalian expression vector harboring human IDO1 cDNA (NM 002164.2) by electroporation. They were cultured in medium (DMEM with 10% FBS) containing 1 mg/ml G418 for two weeks. Clones of HEK293 cells that stably expressed human IDO1 protein were selected and expanded for IDO inhibition assay.
The human IDO1/HEK293 cells were seeded at 10,000 cells per 50 μL per well with RPMI/phenol red free media contains 10% FBS in a 384-well black wall clear bottom tissue culture plate (Matrix Technologies LLC) 100 nL of certain concentration of compound was then added to each well using ECHO liquid handling systems. The cells were incubated for 20 hours in 37° C. incubator with 5% CO2.
The compound treatments were stopped by adding trichloroacetic acid (Sigma-Aldrich) to a final concentration at 0.2%. The cell plate was further incubated at 50° C. for 30 minute. The equal volume supernatant (20 μL) and 0.2% (w/v) Ehrlich reagent (4-dimethylaminobenzaldehyde, Sigma-Aldrich) in glacial acetic acid were mixed in a new clear bottom 384-well plate. This plate was then incubated at room temperature for 30 minute. The absorbance at 490 nm was measured on Envision plate reader.
Compound IC50 values were calculated using the counts of 500 nM of a reference standard treatment as one hundred percent inhibition, and counts of no compound but DMSO treatment as zero percent inhibition.

Chain of human IDO1 (P14902 whole entry): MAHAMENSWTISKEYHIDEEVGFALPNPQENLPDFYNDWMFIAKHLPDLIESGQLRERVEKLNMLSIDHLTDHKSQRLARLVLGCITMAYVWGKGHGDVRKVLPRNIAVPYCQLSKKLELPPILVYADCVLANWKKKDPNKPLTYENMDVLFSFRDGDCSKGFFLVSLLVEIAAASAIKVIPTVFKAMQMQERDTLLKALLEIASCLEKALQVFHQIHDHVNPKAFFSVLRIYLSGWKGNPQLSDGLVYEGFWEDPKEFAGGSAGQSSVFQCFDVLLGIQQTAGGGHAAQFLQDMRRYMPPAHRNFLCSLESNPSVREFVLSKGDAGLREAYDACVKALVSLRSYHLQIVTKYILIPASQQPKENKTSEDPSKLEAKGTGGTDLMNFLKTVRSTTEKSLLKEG

| Structure (SMILES) | IC50 [nM] |
| --- | --- |
| CC(CC(=O)O)c1ccc(N2CCC[C@H]2C(C)(C)O)c(Nc2ccc(Cl)cc2)c1 (single isomer, unassigned) [Example 799] | > 50 |
| COCC(CC(=O)O)c1cc(F)c(N(CC(C)C)CC(C)C)c(NC(=O)Nc2ccc(Cl)cc2F)c1 (single isomer, unassigned) [Example 1182, 3-(3-(3-(4-Chloro-2-fluorophenyl)ureido)-4-(diisobutylamino)-5-fluorophenyl)-4-methoxybutanoic acid] | < 5 |
| CCC(CC(=O)O)c1ccc(N2CCC[C@H]2C(C)(C)O)c(NC(=O)Nc2ccc(OC)cc2F)c1 (single isomer, unassigned) [Example 814] | > 50 |
| CCC(CC(=O)O)c1cc(F)c(N(CC(C)C)CC(C)C)c(NC(=O)Cc2ccc(C)cc2F)c1 (single isomer, unassigned) [Example 1094 E2] | < 5 |
| CC[C@@H](CC(=O)O)c1ccc(N(CC)C2CCOCC2)c(NC(=O)Nc2ccc(F)cc2)c1 (single isomer, unassigned) [Example 490] | < 50 |
| CCN(c1ccc(C(C)CC(=O)O)cc1Nc1ccc2c(c1)OC(F)(F)O2)C1CCOCC1 (single isomer, unassigned) [Example 616, 3-(3-((2,2-difluorobenzo[d] [1,3]dioxol-5-yl)amino)-4-(ethyl(tetrahydro-2H-pyran-4-yl)amino)phenyl)butanoic acid] | < 5 |
| CCC(CC(=O)O)c1cc(F)c(N(CC(C)C)CC(C)C)c(Nc2ccc(Cl)c(OCC(F)(F)F)c2)c1 (single isomer, unassigned) [Example 118, 3-(3-((4-chloro-3-(2,2,2-trifluoroethoxy)phenyl)-amino)-4-(diisobutylamino)-5-fluorophenyl)pentanoic acid] | < 50 |
| CCC(CC(=O)O)c1ccc(N(CC(C)C)C2CCCCC2)c(NC(=O)c2ccc(Oc3ccccc3)cc2)c1 (racemic) [Example 1074, 3-(4-(Cyclohexyl(isobutyl)amino)-3-(4-phenoxybenzamido)phenyl)pentanoic acid] | > 50 |
| CCC(CC(=O)O)c1ccc(N2CCOC[C@H]2C(C)C)c(NC(=O)Nc2cc(C)on2)c1 (single isomer, unassigned) [Example 898] | > 50 |
| Cc1ccc(CC(=O)Nc2cc(C(C)CC(=O)O)ccc2N(CC(C)C)CC(C)C)cc1 (single isomer, unassigned) [Example 954, 3-(4-(Diisobutylamino)-3-(2-(p-tolyl)acetamido)phenyl)butanoic acid] | < 50 |
| COCC(CC(=O)O)c1ccc(N(CC(C)C)C2CCCCC2)c(NC(=O)Cc2cc(C)on2)c1 (single isomer, unassigned) [Example 1234, 3-(4-(Cyclohexyl(isobutyl)amino)-3-(2-(5-methylisoxazol-3-yl)acetamido)phenyl)-4-methoxybutanoic acid] | > 50 |
| CCN(c1ccc(C(C)CC(=O)O)cc1Nc1ccc(F)cc1)C1CCOCC1 (single isomer, unassigned) [Example 615, 3-(4-(ethyl(tetrahydro-2H-pyran-4-yl)amino)-3-((4-fluorophenyl)amino)phenyl) butanoic acid] | < 5 |
| Cc1ccc(CC(=O)Nc2cc(C(CC(=O)O)C3CC3)ccc2N(CC(C)C)C2CCOCC2)cc1 (racemic) [Example 1208, (+/−)-3-Cyclopropyl-3-(4-(isobutyl(tetrahydro-2H-pyran-4-yl)amino)-3-(2-(p-tolyl)acetamido)phenyl)propanoic acid] | < 50 |
| CCN(c1ccc(C(C)(C)CC(=O)O)cc1Nc1ccc2nc(C)sc2c1)C1CCOCC1 [Example 164, 3-(4-(ethyl(tetrahydro-2H-pyran-4-yl)amino)-3-((2-methylbenzo[d]thiazol-6-yl)amino)phenyl)-3-methylbutanoic acid] | < 50 |
| CCN(c1ccc([C@@H](COC)CC(=O)O)cc1NC(=O)Nc1cnc(C)nc1)C1CCOCC1 (single isomer, unassigned) [Example 427] | > 50 |
| CCOc1ccc(NC(=O)Nc2cc(C(COC)CC(=O)O)cc(F)c2N(CC(C)C)C2CCCCC2)cc1 (single isomer, unassigned) [Example 1153, 3-(4-(cyclohexyl(isobutyl)amino)-3-(3-(4-ethoxyphenyl)ureido)-5-fluorophenyl)-4-methoxybutanoic acid] | < 50 |
| CCOc1ncc(Nc2cc(C(CC)CC(=O)O)ccc2N2CCOC[C@H]2C(C)C)cn1 (single isomer, unassigned) [Example 891] | > 50 |
| CCC(CC(=O)O)c1ccc(N(CC(C)C)C(C)C)c(Nc2ccc(Cl)cc2)c1 (single isomer, unassigned) [Example 727, 3-(3-((4-Chlorophenyl)amino)-4-(isobutyl(isopropyl)amino)phenyl)pentanoic acid] | < 5 |

| Structure (SMILES) | IC50 [nM] |
| --- | --- |
| CCOc1ccc(Nc2cc(C(CC)CC(=O)O)ccc2N2CCC[C@H]2C(C)(C)O)cc1 (single isomer, unassigned) [Example 833] | > 50 |
| COCC(CC(=O)O)c1ccc(N(CC(C)C)C2CCOCC2)c(NC(=O)Nc2ccc(C)cc2)c1 (single isomer, unassigned) [Example 1216, 3-(4-(Isobutyl(tetrahydro-2H-pyran-4-yl)amino)-3-(3-(p-tolyl)ureido)phenyl)-4-methoxybutanoic acid] | < 50 |
| CCN(c1ccc(C(CC(=O)O)c2ccccc2)cc1Nc1ccc2nc(C)sc2c1)C1CCOCC1 (single isomer, unassigned) [Example 579, 3-(4-(ethyl(tetrahydro-2H-pyran-4-yl)amino)-3-((2-methylbenzo[d]thiazol-6-yl)amino)phenyl)-3-phenylpropanoic acid] | > 50 |
| CCN(c1ccc(C(C)(C)CC(=O)O)cc1Nc1ccc(C#N)cc1)C1CCOCC1 [Example 160, 3-(3-((4-cyanophenyl)amino)-4-(ethyl(tetrahydro-2H-pyran-4-yl)amino)phenyl)-3-methylbutanoic acid] | < 5 |
| COCC(CC(=O)O)c1ccc(N(CC2CC2)C2CCOCC2)c(Nc2ccc(C#N)c(C)c2)c1 (single isomer, unassigned) [Example 692, 3-(3-((4-cyano-3-methylphenyl)amino)-4-((cyclopropylmethyl) (tetrahydro-2H-pyran-4-yl)amino)phenyl)-4-methoxybutanoic acid] | < 50 |
| COCC(CC(=O)O)c1cc(F)c(N(CC(C)C)C2CCCCC2)c(NC(=O)Cc2ccc(C)cc2)c1 (single isomer, unassigned) [Example 1170, 3-(4-(cyclohexyl(isobutyl)amino)-3-fluoro-5-(2-(p-tolyl)acetamido)phenyl)-4-methoxybutanoic acid] | < 50 |
| CC[C@@H](CC(=O)O)c1ccc(N(CC)C2CCOCC2)c(Nc2ccn3nc(C)c(F)c3n2)c1 (single isomer, unassigned) [Example 473] | > 50 |
| COCC(CC(=O)O)c1cc(F)c(N(CC(C)C)CC(C)C)c(NC(=O)Cc2ccc(C)cc2)c1 (single isomer, unassigned) [Example 1177, 3-(4-(Diisobutylamino)-3-fluoro-5-(2-(p-tolyl)acetamido)phenyl)-4-methoxybutanoic acid] | < 50 |
| CC[C@H](CC(=O)O)c1ccc(N2CCOC[C@@H]2C(C)C)c(Nc2ccc(C#N)cc2)c1 (single isomer, unassigned) [Example 92] | < 5 |
| CCCN(CC1CC1)c1ccc(C(CC)CC(=O)O)cc1Nc1ccc2c(c1)OC(F)(F)O2 (single isomer, unassigned) [Example 662, 3-(4-((cyclopropylmethyl)(propyl)amino)-3-((2,2-difluorobenzo[d] [1,3]dioxol-5-yl)amino)phenyl) pentanoic acid] | < 5 |
| CCOc1ncc(Nc2cc([C@H](CC)CC(=O)O)ccc2N2CCOC[C@@H]2C(C)C)cn1 (single isomer, unassigned) [Example 94] | < 50 |
| CCOc1ncc(Nc2cc(C(C)CC(=O)O)ccc2N(CC)C2CCOCC2)cn1 (single isomer, unassigned) [Example 619, 3-(3-((2-ethoxypyrimidin-5-yl)amino)-4-(ethyl (tetrahydro-2H-pyran-4-yl)amino)phenyl)butanoic acid] | < 50 |
| CCOc1ccc(Nc2cc(C(CC)CC(=O)O)ccc2N(CC(C)C)C2CCCCC2)cc1 (single isomer, unassigned) [Example 313, 3-(4-(cyclohexyl(isobutyl)amino)-3-((4-ethoxyphenyl)amino)phenyl)pentanoic acid] | < 5 |
| CC[C@H](CC(=O)O)c1ccc(N(CC)C2CCOCC2)c(Nc2ccc(Cl)cc2)c1 (single isomer, unassigned) [Example 499] | < 5 |
| CC[C@@H](CC(=O)O)c1ccc(N2CCOC[C@@H]2C(C)C)c(Nc2ccc3c(c2)OC(F)(F)O3)c1 (single isomer, unassigned) [Example 81] | < 50 |
| CCN(c1ccc([C@H](COC)CC(=O)O)cc1NC(=O)Nc1ccc(OC)nc1)C1CCOCC1 (single isomer, unassigned) [Example 437] | > 50 |
| CCC(CC(=O)O)c1cc(NC(=O)Nc2ccc3c(c2)OCO3)c(N(CC(C)C)C2CCCCC2)cc1F (single isomer, unassigned) [Example 1111, 3-(5-(3-(Benzo[d][1,3]dioxol-5-yl)ureido)-4-(cyclohexyl(isobutyl)amino)-2-fluorophenyl)pentanoic acid] | < 5 |
